Here are results for 10 compounds from PMC3278406 (PLoS ONE, 2012).

This experiment deals with Stx2 toxoid (Escherichia phage 933W, UniProt P09386). The class given is binding, Escherichia coli O157:H7.

Entries after “also recorded” stand apart in the source; their conditions may differ.

Chain of Stx2 toxoid (P09386 whole entry, looked up): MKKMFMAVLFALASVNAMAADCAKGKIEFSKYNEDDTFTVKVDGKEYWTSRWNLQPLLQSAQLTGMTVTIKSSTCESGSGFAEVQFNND

On to “Globotriaosyl ceramide, Ceramide trihexoside [Gb3]”, for which the Stx2 binding result is listed as “poor binding; also recorded: increased binding” and the “concentration of Stx2 needed to reach saturated binding” value is reported as “above 1 µM”.

With Asialo GM2 gangliosides [aGM2], the Stx2 binding entry was “failed to support binding”.

As to Asialo GM1 gangliosides [aGM1], the Stx2 binding result is reported as “failed to support binding”.

Take Galactosyl ceramide [Gal-Cer]: the Stx2 binding entry is “failed to support binding”.

As for Lactosyl ceramide [Lac-Cer], the Stx2 binding entry is “failed to support binding”.

For `CCCCCCCCCCCCC/C=C/[C@@H](O)[C@@H](N)CO[C@@H]1O[C@H](CO)[C@@H](O[C@@H]2O[C@H](CO)[C@H](O[C@H]3O[C@H](CO)[C@H](O)[C@H](O)[C@H]3O)[C@H](O)[C@H]2O)[C@H](O)[C@H]1O` [Lyso-Gb3, Lyso-globotriaosylsphingosine], the Stx2 binding result is recorded as “did not bind”.

As to `CC(C)CCC[C@@H](C)[C@H]1CC[C@H]2[C@@H]3CC=C4C[C@@H](O)CC[C@]4(C)[C@H]3CC[C@]12C` [cholesterol], the “change of Stx2 binding to Gb3 in the absence of cholesterol” value is reported as “statistically significant decrease” and the “change of Stx2 binding to Gb3 in the presence of cholesterol alone” value is given as “statistically significant increase”.

Turning to `CC(C)CCC[C@@H](C)[C@H]1CC[C@H]2[C@@H]3CC[C@H]4CCCC[C@]4(C)[C@H]3CC[C@]12C` [5αCh, 5-α-Cholestane], the “Stx2 binding to Gb3 in the presence of sterol and PC” value is reported as “failed to support binding”.

Turning to Globotetraosyl ceramide [Gb4], the Stx2 binding result was “increased binding”. Also, the Kd (read-out: apparent Kd of Stx2) is 14 nM.

With Glucosyl ceramide [Glc-Cer], the Stx2 binding entry is on record as “failed to support binding”.
